# Laboratory results: US20250144067A1, “PERSONALIZED STARVATION THERAPY FOR CANCER” (Faeth Therapeutics, Inc., priority 2021, published 2025)
# Where a name gives a salt, the structure may show the parent alone.
# Tests used:
# [1] = tested on: NCI-H292 lung cancer cells; experiment: FDA drug screening, complete media vs cholesterol-free media without statin (TABLE 1); assay type: cell-based, human
# [2] = tested on: NCI-H292 lung cancer cells; experiment: FDA drug screening, complete media vs cholesterol-free media with simvastatin (TABLE 2); assay type: cell-based, human; conditions: for Cholesterol-free media + simvastatin (0.04 μM) / Complete Media: NCI-H292 cells
# [3] = Complete minus Cholesterol-free, […]
# [4] = NCI-H292 cells in cholesterol-free media without statin
# [5] = cholesterol-free media with simvastatin 0.04 μM, FDA drug library screen (TABLE 2)
# [6] = complete media, FDA drug library screen (TABLE 2)
# [7] = complete media minus cholesterol-free media + simvastatin (0.04 μM), […]
# [8] = Complete minus Cholesterol-free, >0 enhanced anti-cancer activity, about 0 neutral, <0 antagonist
# [9] = NCI-H292 cells, cholesterol-free media without statin
# [10] = complete media minus cholesterol-free media + simvastatin (0.04 μM), >0 enhanced anti-cancer activity, about 0 neutral, <0 antagonist
# [11] = NCI-H292 cells, cholesterol-free media without statin, FDA drug library screen
# [12] = NCI-H292 cells, complete media, FDA drug library screen
# [13] = drug in cholesterol-free media with simvastatin 0.04 μM
# [14] = complete media vs cholesterol-free media + simvastatin (0.04 μM), >0 enhanced anti-cancer activity, about 0 neutral, <0 antagonist
# [15] = Complete minus Cholesterol-free, greater than 0 enhanced anti-cancer activity, about 0 neutral, below 0 antagonists
# [16] = NCI-H292 cells in complete media
# [17] = FDA drug library screen, cholesterol-free media with simvastatin 0.04 μM
# [18] = FDA drug library screen, complete media
# [19] = complete media minus cholesterol-free media + simvastatin, >0 enhanced anti-cancer activity, about 0 neutral, <0 antagonist
# [20] = complete vs cholesterol-free media, >0 enhanced anti-cancer activity, about 0 neutral, <0 antagonist
# [21] = Complete minus Cholesterol-free, greater than 0 enhanced anti-cancer activity, about 0 neutral, below 0 antagonist
# [22] = NCI-H292 cells, FDA drug library screen, cholesterol-free media without statin
# [23] = NCI-H292 cells, FDA drug library screen, complete media
# [24] = cholesterol-free media with simvastatin 0.04 μM, cell growth value in FDA drug screen
# [25] = complete media, cell growth value in FDA drug screen
# [26] = complete vs cholesterol-free media, greater than 0 enhanced anti-cancer activity, about 0 neutral, below 0 antagonists
# [27] = complete media vs cholesterol-free media + simvastatin (0.04 μM), […]
compound,measurement,setting,value
Lumateperone (tosylate),Difference,[1]; [3],−0.84
same,Cholesterol-free,[1]; [4],1.615
same,Cholesterol-free media + simvastatin (0.04 μM),[2]; [5],1.37
same,Complete Media,[2]; [6],1.357
same,Difference,[2]; [7],−0.01
CC#CCn1c(N2CCC[C@@H](N)C2)nc2c1c(=O)n(Cc1nc(C)c3ccccc3n1)c(=O)n2C [Linagliptin],Difference,[1]; [8],−0.23
same,Cholesterol-free,[1]; [9],1.072
same,Complete,"[1]; NCI-H292 cells, complete media",0.8404
same,Cholesterol-free media + simvastatin (0.04 μM),[2]; [5],1.095
same,Complete Media,[2]; [6],1.067
same,Difference,[2]; [10],−0.03
NC(=O)N1c2ccccc2C[C@H](O)c2ccccc21 [Eslicarbazepine],Difference,[1]; [8],−0.02
same,Cholesterol-free,[1]; [11],0.8833
same,Complete,[1]; [12],0.8587
same,Cholesterol-free media + simvastatin (0.04 μM),[2]; [13],1.137
same,Complete Media,[2]; drug in complete media,0.9164
same,Difference,[2]; [14],−0.22
O=c1oc2ccccc2c(O)c1Cc1c(O)c2ccccc2oc1=O [Dicoumarol],Difference,[1]; [15],−0.93
same,Cholesterol-free,[1]; [4],2.049
same,Complete,[1]; [16],1.114
same,Cholesterol-free media + simvastatin (0.04 μM),[2]; [17],0.8973
same,Complete Media,[2]; [18],1.089
same,Difference,[2]; [19],0.19
CC1(C)S[C@@H]2[C@H](NC(=O)[C@H](C(=O)[O-])c3ccsc3)C(=O)N2[C@H]1C(=O)[O-].[Na+].[Na+] [Ticarcillin (disodium)],Cholesterol-free,[1]; [11],0.7001
same,Complete,[1]; [12],1.43
same,Difference,[1]; [20],0.73
same,Cholesterol-free media + simvastatin (0.04 μM),[2]; [17],1.294
same,Complete Media,[2]; [18],1.207
same,Difference,[2]; [14],−0.09
O=C(CCCCCCC(=O)Nc1ccccc1)NO [Vorinostat],Difference,[1]; [21],−0.17
same,Cholesterol-free,[1]; [22],0.4861
same,Complete,[1]; [23],0.3154
same,Cholesterol-free media + simvastatin (0.04 μM),[2]; [13],0.872
same,Complete Media,[2]; drug in complete media,0.635
same,Difference,[2]; [14],−0.24
CC(Cc1ccc(O)cc1)NCC(O)c1cc(O)cc(O)c1 (centres unmarked) [Fenoterol (hydrobromide)],Difference,[1]; [3],−0.09
same,Cholesterol-free,[1]; [22],1.404
same,Complete,[1]; [23],1.311
same,Cholesterol-free media + simvastatin (0.04 μM),[2]; [5],0.9531
same,Complete Media,[2]; [6],0.9512
same,Difference,[2]; [7],0.00
CCc1c2c(nc3ccc(OC(=O)N4CCC(N5CCCCC5)CC4)cc13)-c1cc3c(c(=O)n1C2)COC(=O)[C@]3(O)CC [Irinotecan (hydrochloride)],Difference,[1]; [8],0.02
same,Cholesterol-free,[1]; [11],1.352
same,Complete,[1]; [12],1.37
same,Cholesterol-free media + simvastatin (0.04 μM),[2]; [24],0.928
same,Complete Media,[2]; [25],1.063
same,Difference,[2]; [19],0.13
N[C@@H](CC(=O)N1CCn2c(nnc2C(F)(F)F)C1)Cc1cc(F)c(F)cc1F [Sitagliptin],Difference,[1]; [21],−0.08
same,Cholesterol-free,[1]; [22],0.9944
same,Complete,[1]; [23],0.9145
same,Cholesterol-free media + simvastatin (0.04 μM),[2]; [17],1.605
same,Complete Media,[2]; [18],1.493
same,Difference,[2]; [14],−0.11
CN1CC(O)C2=C/C(=N/NC(N)=O)C(=O)C=C21 (centres unmarked) [Carbazochrome],Difference,[1]; [21],−0.14
same,Cholesterol-free,[1]; [22],1.112
same,Complete,[1]; [23],0.9668
same,Cholesterol-free media + simvastatin (0.04 μM),[2]; [17],1.082
same,Complete Media,[2]; [18],1.238
same,Difference,[2]; [19],0.16
Cc1cc2ncc(C(=O)NCC(C)(C)NCC(=O)N3CCC[C@H]3C#N)cn2n1 [Anagliptin],Difference,[1]; [8],−0.23
same,Cholesterol-free,[1]; [9],1.234
same,Complete,"[1]; NCI-H292 cells, complete media",1.003
same,Cholesterol-free media + simvastatin (0.04 μM),[2]; [17],1.09
same,Complete Media,[2]; [18],0.9692
same,Difference,[2]; [14],−0.12
CCCN1CCCC[C@H]1C(=O)Nc1c(C)cccc1C [Ropivacaine],Difference,[1]; [8],−0.20
same,Cholesterol-free,[1]; [9],1.098
same,Complete,"[1]; NCI-H292 cells, complete media",0.8949
same,Cholesterol-free media + simvastatin (0.04 μM),[2]; [13],0.9386
same,Complete Media,[2]; drug in complete media,0.7628
same,Difference,[2]; [14],−0.18
CN1C(C(=O)Nc2ccccn2)=C(O)c2sc(Cl)cc2S1(=O)=O [Lornoxicam],Cholesterol-free,[1]; [9],1.174
same,Complete,"[1]; NCI-H292 cells, complete media",0.811
same,Difference,[1]; [26],−0.36
same,Cholesterol-free media + simvastatin (0.04 μM),[2]; [17],1.072
same,Complete Media,[2]; [18],0.9888
same,Difference,[2]; [14],−0.08
CC(C)(C)c1ccc(C(=O)CCCN2CCC(OC(c3ccccc3)c3ccccc3)CC2)cc1 [Ebastine],Difference,[1]; [15],−0.60
same,Cholesterol-free,[1]; [4],1.238
same,Complete,[1]; [16],0.6382
same,Cholesterol-free media + simvastatin (0.04 μM),[2]; [17],0.2638
same,Complete Media,[2]; [18],1.066
same,Difference,[2]; [19],0.80
CC(C)Oc1ccc(-c2nc(-c3cccc4c3CC[C@@H]4NCCO)no2)cc1C#N [Ozanimod],Difference,[1]; [8],−0.03
same,Cholesterol-free,[1]; [11],1.036
same,Complete,[1]; [12],1.004
same,Cholesterol-free media + simvastatin (0.04 μM),[2]; [13],1.119
same,Complete Media,[2]; drug in complete media,0.9531
same,Difference,[2]; [14],−0.17
Cc1cc(C(C)(C)C)cc(C)c1CC1=NCCN1 [Xylometazoline (hydrochloride)],Difference,[1]; [3],−0.59
same,Cholesterol-free,[1]; [4],1.406
same,Complete,[1]; [16],0.8153
same,Cholesterol-free media + simvastatin (0.04 μM),[2]; FDA library drug in cholesterol-free media with simvastatin 0.04 μM,1.159
same,Complete Media,[2]; FDA library drug in complete media,0.7803
same,Difference,[2]; [27],−0.38
CCN(CC)Cc1cc(Nc2ccnc3cc(Cl)ccc23)ccc1O [Amodiaquine (dihydrochloride dihydrate)],Cholesterol-free,[1]; [11],0.9158
same,Complete,[1]; [12],1.353
same,Difference,[1]; [20],0.44
same,Cholesterol-free media + simvastatin (0.04 μM),[2]; [17],1.209
same,Complete Media,[2]; [18],1.606
same,Difference,[2]; [19],0.40
C1CCC(C(CC2CCCCN2)C2CCCCC2)CC1 (centres unmarked) [Perhexiline maleate],Difference,[1]; [21],−0.14
same,Cholesterol-free,[1]; [22],1.139
same,Complete,[1]; [23],1.003
same,Cholesterol-free media + simvastatin (0.04 μM),[2]; [5],0.8717
same,Complete Media,[2]; [6],0.811
same,Difference,[2]; [10],−0.06
OC(c1cc(C(F)(F)F)nc2c(C(F)(F)F)cccc12)C1CCCCN1 (centres unmarked) [Mefloquine (hydrochloride)],Difference,[1]; [15],−0.49
same,Cholesterol-free,[1]; [4],1.439
same,Complete,[1]; [16],0.9523
same,Cholesterol-free media + simvastatin (0.04 μM),[2]; [17],1.137
same,Complete Media,[2]; [18],1.057
same,Difference,[2]; [14],−0.08
CC(NCCc1ccc(O)cc1)C(O)c1ccc(O)cc1 (centres unmarked) [Ritodrine (hydrochloride)],Cholesterol-free,[1]; [9],1.435
same,Complete,"[1]; NCI-H292 cells, complete media",0.972
same,Difference,[1]; [26],−0.46
same,Cholesterol-free media + simvastatin (0.04 μM),[2]; [17],1.064
same,Complete Media,[2]; [18],0.9618
same,Difference,[2]; [14],−0.10
N[C@@H](C(=O)N[C@@H]1C(=O)N2C(C(=O)O)=C(Cl)CS[C@H]12)c1ccccc1 [Cefaclor],Difference,[1]; [21],−0.11
same,Cholesterol-free,[1]; [22],1.02
same,Complete,[1]; [23],0.9111
same,Cholesterol-free media + simvastatin (0.04 μM),[2]; [24],1.593
same,Complete Media,[2]; [25],1.696
same,Difference,[2]; [19],0.10
Nc1ccc(C(=O)O)c(O)c1 [4-Aminosalicylic acid],Difference,[1]; [3],−0.16
same,Cholesterol-free,[1]; [22],1.094
same,Complete,[1]; [23],0.9375
same,Cholesterol-free media + simvastatin (0.04 μM),[2]; [17],1.199
same,Complete Media,[2]; [18],1.112
same,Difference,[2]; [27],−0.09
Cc1cc(-c2ccccc2)nnc1NCCN1CCOCC1 [Minaprine (dihydrochloride)],Cholesterol-free,[1]; [9],1.341
same,Complete,"[1]; NCI-H292 cells, complete media",0.9021
same,Difference,[1]; [26],−0.44
same,Cholesterol-free media + simvastatin (0.04 μM),[2]; [17],0.8439
same,Complete Media,[2]; [18],1.278
same,Difference,[2]; [19],0.43
